Measurements taken from US20090264342A1, “COMPOSITIONS AND METHODS FOR ANTIBIOTIC POTENTIATION AND DRUG DISCOVERY” (priority 2006, published 2009).

How the values were obtained:
E. coli MG1655 = assay: Hydroxyl radical formation (HPF dye, flow cytometry) in E. coli; assay type: cell-based; conditions: for hydroxyl radical formation: E. coli, 250 ng/mL norfloxacin, 5 μg/mL ampicillin, 5 μg/mL kanamycin, bacteriostatic drugs, 3 hours after addition
Protocol: (§1) Growth Conditions. In the experiments, the growth and survival of untreated exponential phase E. coli, or S. aureus, were compared to cultured treated with antibiotics at the above concentrations. E. coli cultures were treated with norfloxacin, kanamycin, ampicillin, rifamycin SV, chloramphenical, tetracycline, erythromycin, or spectinomycin, where appropriate, S. aureus cultures were treated with norfloxacin, vancomycin or chloramphenical, where appropriate.
Hydroxyl radical and DNA damage sensor experiments using the flow cytometer. To monitor the occurrence of DNA damage, the engineered DNA damage sensor was used, which responds to auto-cleavage of LexA by activating expression of gfpmut3b. All the drug treatments and the no-drug controls were collected with both the kanamycin- and ampicillin-resistant version of the plasmid, with the exception of the ampicillin treatment (kanamycin plasmid only) and the kanamycin treatment (ampicillin plasmid only). All data were collected using a Becton Dickinson FACSCalibur flow cytometer (Becton Dickinson, San Jose, Calif.) with a 488-nm argon laser and a 515- to 545-nm emission filter (FL1) at low flow rate. The following PMT voltage settings were used: E00 (FSC), 360 (SSC) and 700 (FL1). To detect hydroxyl radical formation, the fluorescent reporter dye, 3′-(p-hydroxyphenyl) fluorescein (HPF, Invitrogen, Carlsbad, Calif.) was used at a concentration of 5 μM (1:1000) dilution), which is oxidized by hydroxyl radicals with high specificity. The following PMT voltage settings were used: E00 (FSC), 360 (SSC) and 825 (FL 1). Calibrite beads (Becton Dickinson) were used for instrument calibration.
Flow data were processed and analyzed with MATLAB (MathWorks, Natick, Mass.) to construct figures. At least 50,000 cells were collected for each sample. In all experiments, cells were grown as described above. Samples were taken immediately before addition of drug (time zero), then every hour for 3 hours. At each timepoint, approximately […] were collected, washed once and resuspended in filtered 1×PBS, pH 7.2 (Fisher Scientific), and fluorescence was measured on the flow cytometer.
In the present study, the Applicants chose to investigate whether hydroxyl radical formation also contributes to antibiotic-induced cell death in bacteria. Using the dye hydroxyphenyl fluorescein, HPF, which is oxidized by hydroxyl radicals with high specificity, hydroxyl radical formation was first observed over a range of hydrogen peroxide concentrations known to induce hydroxyl radicals through the reduction of hydrogen peroxide by ferrous iron. In this manner, it was possible to establish the scale of hydroxyl radical formation detectable using this dye via flow cytometry.

wild-type E. coli = assay type: cell-based; conditions: norfloxacin, ampicillin or kanamycin treatment plus 2,2′-dipyridyl (500 μM)
Protocol: FIG. 36 is a set of 3 graphs showing the effect of iron chelation, hydroxyl radical quenching of iron-sulfur synthesis on the […] efficiency of bactericidal antibiotics. a,c,e, Log change in colony forming units per mL (CFU/mL, mean+/−standard deviation). Effect of addition of 500 μM 2,2′-dipyridyl or 150 mM thiourea to wildtype E. coli, and on an iron-sulfur cluster synthesis mutant, ΔiscS, on bactericidal drug efficacy and hydroxyl radical formation following exposure to a, 250 ng/mL norfloxacin (Nor), c, 5 μg/mL ampicillin (Amp), or e, 5 μg/mL kanamycin (Kan).
as §1
Application of iron chelators is an established means of blocking Fenton reaction-mediated hydroxyl radical formation by sequestering unbound iron. […]

wildtype E. coli = assay: NAD+/NADH extraction and NAD cycling assay; assay type: cell-based; conditions: bacteriostatic drug
From the text: NAD+/NADH extraction and NAD cycling assay. Protocols for dinucleotide extraction and the cycling assay were based on protocols by Leonardo et al. (M. R. Leonardo et al., J. Bacteriol., 1996, 178: 6013-6018).
Using a modified version (M. R. Leonardo et al., J. Bacteriol., 1996, 178: 6013-6018;) of the NAD^+ cycling assay developed by Bernofsky and Swan (C. Bernofsky et al., Anal. Biochem., 1973, 53: 452-458), the present Applicants monitored NAD^+ and NADH concentrations in wildtype E. coli following treatment with the bactericidal drugs norfloxacin, ampicillin and kanamycin, as well as the bacteriostatic drug spectinomycin. For all three bactericidal drugs, a >5 fold increase in the NAD^+/NADH ratio was observed 0.5 hours after drug addition. This ratio returned to untreated levels by 1 hour. The increase in the NAD^+/NADH ratio was predominantly due to a large relative drop in NADH accompanied by a modest surge in NAD^+. This spike was not observed in an untreated culture, where the ratio of NAD^+/NADH remained tightly bounded. More importantly, treatment with the bacteriostatic drug spectinomycin had no effect on the NAD^+/NADH ratio relative to the untreated culture. A surge in NADH consumption upon exposure to bactericidal antibiotics should induce a burst in superoxide generation via the respiratory chain. […]

Streptomyces pneumoniae = conditions: more active than ciprofloxacin against this pathogen; cited from earlier work
[1] = system: SOS response (LexA auto-cleavage) in E. coli; assay: SOS induction, LexA-controlled GFP DNA damage sensor; assay type: cell-based; conditions: 5 μg/mL Amp, 5 μg/mL Kan, 25 ng/mL Nor; 3 hours after addition
Protocol: FIG. 37 is a set of two graphs showing SOS induction in E. coli by bactericidal antibiotics. Activation of the SOS response was monitored using an engineered sensor construct that employs the LexA repressor for control of Green Fluorescent Protein (GFP) expression. Shown are representative GFP histogram measurements taken 3 hours after addition of a, bactericidal antibiotics (5 μg/mL Amp, 5 μg/mL Kan, 25 ng/mL Nor). b, Log change in CFU/mL of ΔrecA E. coli following exposure to 5 μg/mL Kanamycin (open diamonds), 25 ng/mL Norfloxacin (open triangles), and 5 μg/mL Ampicillin (open circles). For comparison, CFU/mL are also shown for widltype E. coli exposed to 5 μg/mL Kanamycin (diamonds), 25 ng/mL Norfloxacin (triangles), and 5 μg/mL Ampicillin (circles), as well as a lower concentration of norfloxacin in these experiments to highlight the significant increase in killing in a recA knockout.
DNA damage sensor construction. The DNA sensor construct with ampicillin resistance was described previously (D. J. Dwyer et al., “Superoxide and hydroxyl radicals contribute to gyrase inhibitor-mediated cell death in E. coli”, 2007 accepted by Mol. Syst. Biol., which is incorporated herein by reference in its entirety).
Hydroxyl radical and DNA damage sensor experiments using the flow cytometer. […]
Hydroxyl radical are extremely toxic, and will readily damage membrane lipids, proteins and DNA. […]

E. Coli RecA protein = molecular target: T1, E. Coli RecA protein (Escherichia coli, UniProt P0A7G6); assay: RecA ATPase activity, in vitro luciferase assay; assay type: biochemical; conditions: luciferase assay screen
T1 construct: purchased New England Biolabs
T1 sequence (P0A7G6 2-353): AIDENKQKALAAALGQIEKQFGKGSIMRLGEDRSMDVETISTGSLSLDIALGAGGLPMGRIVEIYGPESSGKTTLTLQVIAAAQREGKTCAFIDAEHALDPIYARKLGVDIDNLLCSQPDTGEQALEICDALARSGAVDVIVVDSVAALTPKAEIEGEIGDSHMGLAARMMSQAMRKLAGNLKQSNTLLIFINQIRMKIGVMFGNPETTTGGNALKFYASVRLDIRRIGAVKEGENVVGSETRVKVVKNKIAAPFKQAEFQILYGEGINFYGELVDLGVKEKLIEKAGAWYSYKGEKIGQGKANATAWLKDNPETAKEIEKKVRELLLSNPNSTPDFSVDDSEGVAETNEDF
Protocol: The assay measures the amount of ATPase (adenosine triphosphate (ATP)-adenosine diphosphate (ADP)) activity catalyzed by E. Coli RecA protein. In the assay, recA is incubated in reaction buffer with DNA, ATP and compounds of interest for a measured amount of time. The quantity of ATP remaining after the RecA reaction is quantitated using a subsequent luciferase assay. […] Details of the assay are provided below.
Materials. Kingase glo plus, adenosine triphosphate (ATP), Adenosine 5′-O-(3-thiotriphosphate), and 384 well plates, white were obtained from Fisher; and M13 mp18 Single-stranded DNA, RecA Protein and T4 Polynucleotide Kinase Reaction Buffer=PNK were obtained from New England Biolabs. PNK contained 70 mM Tris-CL pH 7.5, 10 mM MgCl2 and 5 mM DTT.
Assay Procedure. Final reaction mixture contains: 0.5 μL of M13 single stranded DNA (250 μg/mL); 1.0 μL of 10×PHK buffer; 0.25 μL of RecA (2 mg/mL); 0.25 μL of 1 mM ATP; 0.25 μL of test compound in DMSO; and […] of H2O.
Test compounds are incubated at room temperature in the presence of RecA protein and DNA prior to addition of ATP. This can be achieved by the preparation of two mixes, as indicated below. Desirably, both a no-DNA and a DNA/DMSO-only (i.e., no test compound) control were included.
The following steps are then performed: (1) Add 7.75 μL of mix 1 to the well of a 384 well plate; (2) Add 0.5 μL of the compound of interest; (3) Incubate at room temperature for 5 minutes; (4) Add 2.5 μL of the ATP mix. Incubate at room temperature for 30 minutes; (5) Add 12.5 μL of Promega Kinase glo plus; (6) Incubate at room temperature for 10 minutes or more; and (7) Measure luminescence of the reaction.
Tested compounds were obtained from Boston University (1205 compounds from CMLD diversity library, available from Dr. Scott Schauss), IndoFine (66 compounds based on flavone structure), ChemdiV (48 compounds known to be ATPase inhibitors and 720 compounds structurally related to CB101 (described, for example, in U.S. Ser. No. 60/662,038), and Asinex. Five (5) tested compounds were bisfiavones and 28 were predicted, based on structural modeling (see, for example, Example 31) to dock with Rec A. Many of the compounds are lipophilic, natural-product-like compounds. Others are flavones, bisflavones, flavonoids, coumarins, and/or heterocyclic compounds.
Percent inhibition is calculated according to the following equation: […]

[2] = system: S. aureus strain S3 (ISP 794); assay: Survival assay, potentiation of ciprofloxacin, S. aureus strain S3; assay type: cell-based; conditions: 1 μg/mL ciprofloxacin + 25 μg/mL hinokiflavone, 16 hour time point
From the text: Cell-based Survival Assay.

S. aureus cells = assay: Mutation/resistance assay, resistance to ciprofloxacin; assay type: cell-based; conditions: 4×MIC ciprofloxacin with (+) or without (−) 25 μg/mL hinokiflavone
Protocol: This assay measures the rate at which mutant cells arise in the presence of an antibiotic agent. Cells are grown in the presence of antibiotic agent at a concentration above (generally well above, e.g., 4× or 8×) its MIC, and further in the presence or absence of a test agent (that may inhibit or enhance mutation).
Every 24 hours, an aliquot is removed from the culture and is diluted so that the antibiotic agent is no longer present at a concentration above its MIC (e.g., so that the antibiotic agent is present at 0.5×MIC or less). These aliquoted samples are then assayed to determine whether they can grow in the presence of the antibiotic agent. Specifically, when growth is observed in the presence of antibiotic agent at a concentration that is 4×MIC, then resistance is said to have developed. Test compounds can therefore be assayed to assess whether or not they can reduce the incidence of resistance (e.g., by inhibiting mutation).
These aliquoted samples were then assayed to determine whether they can grow in the presence of ciprofloxacin. […]

c1ccc(-c2ccccn2)nc1 [2,2′-dipyridyl]
hydroxyl radical formation in norfloxacin-treated cultures (E. coli MG1655; addition of 2,2′-dipyridyl (500 μM)): significantly reduced hydroxyl radical formation
survival of bactericidal drug-treated E. coli following addition of iron chelator (wild-type E. coli): significant increase in survival

CN[C@@H]1[C@H](O)[C@H](NC)[C@H]2O[C@@]3(O)C(=O)C[C@@H](C)O[C@H]3O[C@@H]2[C@H]1O [spectinomycin]
effect on the NAD+/NADH ratio relative to the untreated culture (wildtype E. coli): no effect
hydroxyl radical formation (E. coli MG1655): did not stimulate hydroxyl radical production

CO/N=C1\CN(c2nc3c(cc2F)c(=O)c(C(=O)O)cn3C2CC2)CC1CN (stereo not drawn) [Gemifloxacin]
activity relative to ciprofloxacin (Streptomyces pneumoniae): 30 fold

CC1(C)S[C@@H]2[C@H](NC(=O)[C@H](N)c3ccccc3)C(=O)N2[C@H]1C(=O)O [ampicillin]
hydroxyl radical formation (E. coli MG1655): induce hydroxyl radical formation
SOS activity (LexA-driven GFP expression) [1]: induced the SOS response

O=c1cc(-c2ccc(Oc3c(O)cc4oc(-c5ccc(O)cc5)cc(=O)c4c3O)cc2)oc2cc(O)cc(O)c12 [hinokiflavone]
IC50 (E. Coli RecA protein): < 1860 nM
fewer CFUs in the presence of hinokiflavone as compared with its absence [2]: approximately 100 fold
Number of Wells in which Growth Observed in Presence of Ciprofloxacin at 4x MIC (S. aureus cells; culture grown 0 days): 0
Number of Wells in which Growth Observed in Presence of Ciprofloxacin at 4x MIC (S. aureus cells; culture grown 1 day): 0
Number of Wells in which Growth Observed in Presence of Ciprofloxacin at 4x MIC (S. aureus cells; culture grown 5 days): 0
Number of Wells in which Growth Observed in Presence of Ciprofloxacin at 4x MIC (S. aureus cells; culture grown 6 days): 0
Number of Wells in which Growth Observed in Presence of Ciprofloxacin at 4x MIC (S. aureus cells; culture grown 7 days): 3
Number of Wells in which Growth Observed in Presence of Ciprofloxacin at 4x MIC (S. aureus cells; culture grown 10 days): 4
